The values that follow come from ChEMBL document CHEMBL4507266, “Data for DCP probe BAY-784” (2021).

Each structure is given as a SMILES string.

In series [1] the target is L-type calcium channel, benzothiazepine site (Cav1.2 alpha-1C) (Homo sapiens, UniProt Q13936). Kind of series: Inhibition of Calcium Channel L-Type, Benzothiazepine at 10 µM in the Eurofins-Panlabs radioligand binding assay (Eurofins_assay_214510). The settings on record: male, Wistar, rat, rat whole brain preparation, probe [3H] Diltiazem, 2 nM; compound concentration 10 uM; target entry is the homologue from another species. On the set-up: ligand concentration 2 nM, non-specific ligand with concentration 10 µM Diltiazem, incubation time 3h, incubation temperature 4 °C.
Sequence of L-type calcium channel, benzothiazepine site (Cav1.2 alpha-1C) (Q13936 whole entry): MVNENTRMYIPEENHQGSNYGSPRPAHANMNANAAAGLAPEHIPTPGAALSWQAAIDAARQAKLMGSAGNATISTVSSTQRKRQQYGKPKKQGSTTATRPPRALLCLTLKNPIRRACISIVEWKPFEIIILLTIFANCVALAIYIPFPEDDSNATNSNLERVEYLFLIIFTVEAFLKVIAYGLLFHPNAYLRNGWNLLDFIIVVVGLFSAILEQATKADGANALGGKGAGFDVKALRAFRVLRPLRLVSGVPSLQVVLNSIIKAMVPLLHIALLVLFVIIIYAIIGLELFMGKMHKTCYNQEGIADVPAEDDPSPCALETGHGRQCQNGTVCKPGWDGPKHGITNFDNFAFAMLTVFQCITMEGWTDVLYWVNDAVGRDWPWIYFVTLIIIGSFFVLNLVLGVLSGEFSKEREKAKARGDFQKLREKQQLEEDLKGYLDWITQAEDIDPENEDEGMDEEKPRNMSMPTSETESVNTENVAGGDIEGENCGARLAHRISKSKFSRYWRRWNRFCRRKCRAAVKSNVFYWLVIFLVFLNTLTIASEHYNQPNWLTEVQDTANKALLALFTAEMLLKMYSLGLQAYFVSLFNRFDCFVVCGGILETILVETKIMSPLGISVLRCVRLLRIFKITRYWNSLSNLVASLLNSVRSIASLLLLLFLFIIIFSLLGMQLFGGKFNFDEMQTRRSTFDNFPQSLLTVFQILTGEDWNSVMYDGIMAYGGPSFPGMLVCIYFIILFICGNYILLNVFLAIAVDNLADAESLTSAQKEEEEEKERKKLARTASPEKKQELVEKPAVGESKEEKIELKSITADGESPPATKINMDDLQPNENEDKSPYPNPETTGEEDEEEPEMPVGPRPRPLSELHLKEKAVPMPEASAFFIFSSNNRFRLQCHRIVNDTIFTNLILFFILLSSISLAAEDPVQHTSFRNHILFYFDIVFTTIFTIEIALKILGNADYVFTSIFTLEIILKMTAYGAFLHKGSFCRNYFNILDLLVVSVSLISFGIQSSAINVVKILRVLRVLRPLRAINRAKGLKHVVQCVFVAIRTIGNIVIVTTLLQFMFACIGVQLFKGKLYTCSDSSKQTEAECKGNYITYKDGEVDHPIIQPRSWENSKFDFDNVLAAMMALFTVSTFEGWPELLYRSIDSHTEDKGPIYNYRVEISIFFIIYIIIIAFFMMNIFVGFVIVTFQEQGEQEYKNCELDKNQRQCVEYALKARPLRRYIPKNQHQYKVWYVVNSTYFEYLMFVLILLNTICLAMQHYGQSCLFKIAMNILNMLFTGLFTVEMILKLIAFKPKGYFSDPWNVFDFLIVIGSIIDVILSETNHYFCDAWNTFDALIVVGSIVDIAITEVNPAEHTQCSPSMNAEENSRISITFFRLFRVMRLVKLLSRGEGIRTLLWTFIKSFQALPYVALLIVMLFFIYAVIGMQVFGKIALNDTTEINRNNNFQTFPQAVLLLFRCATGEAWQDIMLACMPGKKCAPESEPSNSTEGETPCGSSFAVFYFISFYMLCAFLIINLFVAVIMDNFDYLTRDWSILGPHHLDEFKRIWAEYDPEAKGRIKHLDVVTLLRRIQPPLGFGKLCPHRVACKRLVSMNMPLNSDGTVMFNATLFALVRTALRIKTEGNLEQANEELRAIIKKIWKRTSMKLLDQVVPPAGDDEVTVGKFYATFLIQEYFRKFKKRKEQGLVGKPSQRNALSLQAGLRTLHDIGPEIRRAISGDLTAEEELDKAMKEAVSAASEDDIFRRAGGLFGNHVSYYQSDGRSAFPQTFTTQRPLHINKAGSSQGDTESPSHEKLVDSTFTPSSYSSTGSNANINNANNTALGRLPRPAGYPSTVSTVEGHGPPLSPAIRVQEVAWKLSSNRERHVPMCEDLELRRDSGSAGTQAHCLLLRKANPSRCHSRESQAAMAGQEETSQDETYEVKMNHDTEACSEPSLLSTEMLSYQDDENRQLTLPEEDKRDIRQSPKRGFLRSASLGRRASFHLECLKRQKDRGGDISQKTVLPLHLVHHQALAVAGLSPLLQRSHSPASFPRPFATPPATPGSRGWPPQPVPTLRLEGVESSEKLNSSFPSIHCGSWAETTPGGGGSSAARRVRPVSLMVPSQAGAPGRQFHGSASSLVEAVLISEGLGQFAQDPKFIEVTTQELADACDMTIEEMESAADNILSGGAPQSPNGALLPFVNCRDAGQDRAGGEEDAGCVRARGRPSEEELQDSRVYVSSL

In series [2] the target is GABA-A receptor; anion channel (Rattus norvegicus) (UniProt O09028+P15431+P18506+P18508+P19969+P20236+P23574+P23576+P28471+P28473+P30191+P62813+P63079+P63138+Q91ZM7+Q9ES14). Kind of series: Inhibition of GABAA, Muscimol, Central at 10 µM in the Eurofins-Panlabs radioligand binding assay (Eurofins_assay_226500). In kind it is protein-complex assay. Conditions: Compound concentration 10.0 uM; call rule not given here.

For series [3], the target named is Neutrophil elastase (Homo sapiens) (UniProt P08246). Nature of the series: Inhibition of Peptidase, ELA2 (Neutrophil Elastase 2) at 10 µM in the Eurofins-Panlabs enzyme assay (Eurofins_assay_166010). The settings on record: Compound concentration 10.0 uM.
Sequence of Neutrophil elastase (Homo sapiens) (P08246 whole entry): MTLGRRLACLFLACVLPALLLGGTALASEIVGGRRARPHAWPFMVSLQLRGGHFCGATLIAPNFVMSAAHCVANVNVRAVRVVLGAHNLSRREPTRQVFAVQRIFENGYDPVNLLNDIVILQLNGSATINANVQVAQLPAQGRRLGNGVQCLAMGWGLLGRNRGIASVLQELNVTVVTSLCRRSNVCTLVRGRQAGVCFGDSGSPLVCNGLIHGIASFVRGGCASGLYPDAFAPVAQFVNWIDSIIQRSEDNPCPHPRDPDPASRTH
The target of series [4] is Matrix metalloproteinase-9 (Homo sapiens) (UniProt P14780). Kind of series: Inhibition of Peptidase, Matrix Metalloproteinase-9 (MMP-9) at 10 µM in the Eurofins-Panlabs enzyme assay (Eurofins_assay_114910). On the set-up: substrate with concentration. The settings on record: Compound concentration 10.0 uM.
Sequence of Matrix metalloproteinase-9 (Homo sapiens) (P14780 whole entry): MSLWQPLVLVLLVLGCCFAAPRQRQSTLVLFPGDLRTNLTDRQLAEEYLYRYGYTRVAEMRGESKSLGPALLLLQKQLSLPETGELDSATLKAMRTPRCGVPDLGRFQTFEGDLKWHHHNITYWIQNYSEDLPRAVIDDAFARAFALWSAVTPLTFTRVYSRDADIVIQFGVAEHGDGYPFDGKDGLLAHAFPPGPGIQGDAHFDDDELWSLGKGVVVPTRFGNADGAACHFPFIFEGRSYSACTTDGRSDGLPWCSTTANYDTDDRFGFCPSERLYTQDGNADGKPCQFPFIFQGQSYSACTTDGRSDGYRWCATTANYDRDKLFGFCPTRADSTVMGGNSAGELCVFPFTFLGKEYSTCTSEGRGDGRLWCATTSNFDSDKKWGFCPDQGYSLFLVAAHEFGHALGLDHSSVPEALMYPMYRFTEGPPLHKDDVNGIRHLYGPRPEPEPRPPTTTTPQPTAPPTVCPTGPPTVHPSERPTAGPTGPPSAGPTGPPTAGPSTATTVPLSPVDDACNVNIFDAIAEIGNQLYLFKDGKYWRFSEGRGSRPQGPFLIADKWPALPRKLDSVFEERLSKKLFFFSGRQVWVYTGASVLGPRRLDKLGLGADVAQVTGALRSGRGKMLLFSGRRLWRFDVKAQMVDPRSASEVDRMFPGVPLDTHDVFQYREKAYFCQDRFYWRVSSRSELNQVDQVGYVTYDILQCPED
Series [5] has as its target Mitogen-activated protein kinase 1 (Homo sapiens) (UniProt P28482). Kind of series: Inhibition of Protein Serine/Threonine Kinase, MAPK1 (ERK2) at 10 µM in the Eurofins-Panlabs enzyme assay (Eurofins_assay_171120). Also on record: substrate with concentration. Conditions: Compound concentration 10.0 uM.
Series [6] addresses Thromboxane-A synthase (Homo sapiens) (UniProt P24557). Nature of the series: Inhibition of Thromboxane Synthase at compound concentration of 10.0 uM in the Eurofins-Panlabs enzyme assay (Eurofins_assay_194020). The settings on record: Compound concentration 10.0 uM. Also on record: substrate with concentration.
In series [7] the target is T1, Alpha-2A adrenergic receptor (Homo sapiens) (UniProt P08913).
T1 sequence (whole entry): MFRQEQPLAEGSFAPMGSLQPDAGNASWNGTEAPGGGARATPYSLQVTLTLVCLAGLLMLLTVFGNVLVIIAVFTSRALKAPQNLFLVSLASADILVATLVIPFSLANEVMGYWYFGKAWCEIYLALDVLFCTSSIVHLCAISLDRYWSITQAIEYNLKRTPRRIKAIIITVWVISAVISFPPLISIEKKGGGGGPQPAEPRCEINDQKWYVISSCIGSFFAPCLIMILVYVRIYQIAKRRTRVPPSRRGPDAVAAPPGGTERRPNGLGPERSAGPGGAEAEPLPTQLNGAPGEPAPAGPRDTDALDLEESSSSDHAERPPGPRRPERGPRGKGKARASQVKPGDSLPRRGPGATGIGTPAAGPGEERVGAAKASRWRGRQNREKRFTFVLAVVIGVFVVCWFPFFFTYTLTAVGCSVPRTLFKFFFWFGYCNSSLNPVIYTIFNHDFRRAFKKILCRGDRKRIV
Nature of the series: Adrenergic alpha2A Eurofins-Panlabs radioligand binding assay. The settings on record: Compound concentration 10.0 uM. Also on record: ligand concentration 1 nM, non-specific ligand with concentration 10 µM WB-4101, incubation time 60 min, incubation temperature 25 °C.

Series [8] can be described thus: Inhibition of Atrial Natriuretic Factor (ANF) at 10 µM in the Eurofins-Panlabs radioligand binding assay (Eurofins_assay_211000). The settings on record: Cavia porcellus; Compound concentration 10 uM; Assay protocol publication PMID: 2408776; Detection method Radioligand Binding; Incubation temperature 4 °C; Incubation time 60 min; Ligand Bmax 0.013 pM/ mg protein; Ligand Kd 0.14 nM; Ligand [125I] ANF (rat); Ligand concentration 0.016 nM; Ligand specific binding 78 %; Non-specific ligand with concentration 0.1 µM ANF (rat); Reference compound ANF (rat); Source of ….

A short description of series [9]: Inhibition of Platelet-Derived Growth Factor (PDGF) at 10 µM in the Eurofins-Panlabs radioligand binding assay (Eurofins_assay_265200). The settings on record: Compound concentration 10 uM; Detection method Radioligand Binding; Incubation temperature 25 °C; Incubation time 45 min; Ligand [3H]PDGF; Ligand concentration 0.02 nM; Non-specific ligand with concentration 10 nM PDGF; Source of protein Swiss mouse 3T3 embryo cells.

For series [10], the target named is 5-hydroxytryptamine receptor 4 (Homo sapiens) (UniProt Q13639). Nature of the series: Inhibition of Serotonin (5-Hydroxytryptamine) 5-HT4 at 10 µM in the Eurofins-Panlabs radioligand binding assay (Eurofins_assay_272000). Conditions: Cavia porcellus; Compound concentration 10.0 uM.
For series [11], the target named is Substance-K receptor (Homo sapiens) (UniProt P21452). Kind of series: Inhibition of Tachykinin NK2 at 10 µM in the Eurofins-Panlabs radioligand binding assay (Eurofins_assay_255600). Also on record: ligand concentration 0.5 nM. Conditions: Compound concentration 10.0 uM.
For series [12], the target named is D(3) dopamine receptor (Homo sapiens) (UniProt P35462). Conditions: Compound concentration 10.0 uM.
Series [13] addresses cGMP-specific 3',5'-cyclic phosphodiesterase (Homo sapiens) (UniProt O76074). Conditions: Compound concentration 10.0 uM.
For series [14], the target named is T2, Alpha-2B adrenergic receptor (Homo sapiens) (UniProt P18089).
T2 sequence (whole entry): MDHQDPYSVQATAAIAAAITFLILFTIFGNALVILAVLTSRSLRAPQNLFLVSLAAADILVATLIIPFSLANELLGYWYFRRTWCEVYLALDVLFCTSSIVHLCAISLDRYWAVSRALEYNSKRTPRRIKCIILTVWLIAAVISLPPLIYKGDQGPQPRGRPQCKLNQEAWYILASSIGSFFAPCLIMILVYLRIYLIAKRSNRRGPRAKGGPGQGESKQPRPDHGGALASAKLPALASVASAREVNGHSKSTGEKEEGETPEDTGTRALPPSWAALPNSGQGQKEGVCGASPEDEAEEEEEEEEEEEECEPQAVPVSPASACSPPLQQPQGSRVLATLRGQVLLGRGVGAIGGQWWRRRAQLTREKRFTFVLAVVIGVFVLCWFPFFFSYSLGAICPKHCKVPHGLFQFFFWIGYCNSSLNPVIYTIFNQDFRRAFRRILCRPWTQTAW
Conditions: Compound concentration 10.0 uM.

The target of series [15] is Beta-3 adrenergic receptor (Homo sapiens) (UniProt P13945). The settings on record: Compound concentration 10.0 uM.
In series [16] the target is Type-2 angiotensin II receptor (Homo sapiens) (UniProt P50052). Conditions: Compound concentration 10.0 uM.
Sequence of Type-2 angiotensin II receptor (Homo sapiens) (P50052 whole entry): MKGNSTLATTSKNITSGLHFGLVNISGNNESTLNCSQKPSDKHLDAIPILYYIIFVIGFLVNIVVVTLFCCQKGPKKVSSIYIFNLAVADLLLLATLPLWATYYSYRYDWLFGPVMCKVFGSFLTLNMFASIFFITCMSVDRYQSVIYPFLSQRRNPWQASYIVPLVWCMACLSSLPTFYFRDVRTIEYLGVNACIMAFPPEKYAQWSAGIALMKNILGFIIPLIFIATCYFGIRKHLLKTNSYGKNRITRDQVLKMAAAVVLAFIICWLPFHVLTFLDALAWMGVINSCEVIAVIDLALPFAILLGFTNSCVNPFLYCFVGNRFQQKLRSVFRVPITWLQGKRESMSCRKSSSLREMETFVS
For series [17], the target named is Glutamate receptor 2 (Homo sapiens) (UniProt P42262). Conditions: Rattus norvegicus; Compound concentration 10.0 uM.
Series [18] concerns the target Muscarinic acetylcholine receptor M4 (Homo sapiens) (UniProt P08173). Conditions: Compound concentration 10.0 uM.
The subject of series [19] is Progesterone receptor (Bos taurus). Nature of the series: Progesterone Eurofins-Panlabs radioligand binding assay. The settings on record: Compound concentration 10.0 uM.

Sequence of Thromboxane-A synthase (Homo sapiens) (P24557 whole entry): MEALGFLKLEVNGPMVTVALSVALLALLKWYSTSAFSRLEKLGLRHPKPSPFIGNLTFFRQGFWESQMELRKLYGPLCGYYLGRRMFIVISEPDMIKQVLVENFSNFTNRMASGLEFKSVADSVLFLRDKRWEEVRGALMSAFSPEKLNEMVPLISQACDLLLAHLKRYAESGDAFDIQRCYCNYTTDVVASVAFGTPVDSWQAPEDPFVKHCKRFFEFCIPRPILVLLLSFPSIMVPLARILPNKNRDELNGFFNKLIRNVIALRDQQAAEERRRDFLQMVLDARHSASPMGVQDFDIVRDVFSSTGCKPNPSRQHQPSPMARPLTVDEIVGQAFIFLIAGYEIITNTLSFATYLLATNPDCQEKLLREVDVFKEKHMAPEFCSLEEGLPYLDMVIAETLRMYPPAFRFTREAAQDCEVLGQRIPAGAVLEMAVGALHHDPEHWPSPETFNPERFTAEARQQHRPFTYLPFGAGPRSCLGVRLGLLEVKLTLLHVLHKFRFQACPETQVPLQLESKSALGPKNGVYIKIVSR
Sequence of Muscarinic acetylcholine receptor M4 (Homo sapiens) (P08173 whole entry): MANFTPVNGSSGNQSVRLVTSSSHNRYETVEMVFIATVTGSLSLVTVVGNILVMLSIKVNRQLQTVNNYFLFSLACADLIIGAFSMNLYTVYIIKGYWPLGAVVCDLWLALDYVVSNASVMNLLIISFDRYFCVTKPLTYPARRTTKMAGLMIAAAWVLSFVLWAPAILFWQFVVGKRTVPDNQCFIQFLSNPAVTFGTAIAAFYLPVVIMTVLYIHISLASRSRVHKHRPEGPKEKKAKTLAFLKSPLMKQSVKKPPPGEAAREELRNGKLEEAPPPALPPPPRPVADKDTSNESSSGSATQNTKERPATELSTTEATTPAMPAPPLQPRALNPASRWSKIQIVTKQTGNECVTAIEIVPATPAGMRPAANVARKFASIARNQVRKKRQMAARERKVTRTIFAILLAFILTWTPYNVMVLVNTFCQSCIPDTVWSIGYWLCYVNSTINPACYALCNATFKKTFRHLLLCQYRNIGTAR
Sequence of Mitogen-activated protein kinase 1 (Homo sapiens) (P28482 whole entry): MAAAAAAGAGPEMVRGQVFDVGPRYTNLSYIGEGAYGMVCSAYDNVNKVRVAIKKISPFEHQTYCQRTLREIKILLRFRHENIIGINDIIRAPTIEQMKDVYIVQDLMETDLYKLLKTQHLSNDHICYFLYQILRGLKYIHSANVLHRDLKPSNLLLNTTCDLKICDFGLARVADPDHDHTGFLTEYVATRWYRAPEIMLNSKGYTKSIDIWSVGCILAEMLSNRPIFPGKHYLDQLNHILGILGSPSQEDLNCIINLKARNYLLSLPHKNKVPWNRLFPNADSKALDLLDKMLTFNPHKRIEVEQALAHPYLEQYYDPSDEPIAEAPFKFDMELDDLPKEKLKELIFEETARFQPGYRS

For orientation: inhibition means the change of the read-out against control, counted positive when it falls. With `O=C(NCc1ncc(C(F)(F)F)cc1Cl)c1ccc2c(c1)C1(CCS(=O)(=O)CC1)[C@H](C1CC1)N2S(=O)(=O)c1ccc(F)cc1` [BAY-784], the inhibition at 3 h, 10 µM in series [1] is listed as 29% (not active). For the same molecule, the inhibition in [2] is 7%; in series [3], 0%; in series [4] it was 3%; in series [5], 53%; in [6] it was 22%; in series [7] it was -1%. Moreover, the inhibition in [10] was 22%; in series [11] it was 7%; in series [12], 17%; in series [13], -5%; in series [14], 4%; in series [15], 0%. Moreover, the inhibition in series [16] is -5%; in series [17], 2%; in series [18], 2%; in [19] it was 0%. In addition, the inhibition at 10 µM was 2% (not active) in [8] and -4% (not active) in [9].
